This assay concerns dorsal root ganglion lipids. Nature of the assay: Lipidomic analysis of terminal tissues, OIPN prevention study. Format: in vivo, male Sprague Dawley rats. As to conditions: 25 mg/kg BID, versus vehicle, P = .03. The method, then:
Pain measurements were made on Days 5/6 (when neuropathy has normally developed) and at the end of the study. […] Terminal plasma samples were taken for bioanalysis and proteomics (Somalogic). Brain regions involved in pain processing, that is, prefrontal cortex (PFC), periaqueductal grey (PAG), whole spinal cords (SC), and L4-L6 dorsal root ganglia, were collected for lipidomic and genomic (Genewiz, China) analyses. Lipid extraction from tissues was performed as previously described.[40] Samples were flash frozen in liquid nitrogen, weighed and transferred to a centrifuge tube with HPLC-grade methanol (Thermo Fisher Scientific, Fair Lawn, NJ). Tubes were spiked with 500 picomoles d8AEA (Cayman Chemical, Ann Arbor, MI). Samples were left on ice for 2 hours, homogenised and centrifuged at 19,000 g for 20 minutes at 20°C. […] Elution samples were then analysed by HPLC MS/MS as previously described.[40] 20 μL samples were run on an Agilent XDB-C18 reversed-phase analytical column and analysed using an Applied Biosystems API 3,000 triple quadrupole mass spectrometer with electrospray ionisation (Foster City, CA). […] Concentrations in mols/gram were adjusted according to extraction efficiency, as determined by d8AEA recovery. For each individual lipid species, samples were unblinded, fold-change compared to the vehicle was calculated and significance calculated by t-test (P < .05 and P < .1) in R.

As to `COc1ccccc1[C@@H]1[C@H](C(=O)O)[C@@H](c2ccccc2OC)[C@H]1C(=O)OC1Cc2ccccc2C1` [ART26.12, (+)–3-Indan-2-yloxycarbonyl-2,4-bis(2-methoxyphenyl)cyclobutanecarboxylic acid], the “increase of N-docosahexaenoyl proline in DRG” value came to 9 fold.

These data come from publication PMC12993615 (The journal of pain, 2024).
